Laboratory results reported in patent US20250188085A1, “COMPOSITIONS AND METHODS FOR INHIBITION OF RAS” (THERAS, INC., priority 2022, published 2025).
Where two headings read alike, the source gives them in different places.

Tests used:
[1] = target: T1, GDP-loaded KRAS4b (amino acids 1-169) G12C/C118S protein (Homo sapiens, UniProt P01116, C118S/G12C); experiment: Covalent cysteine 12 modification by MALDI-TOF MS, GDP-loaded KRAS G12C; assay type: binding; conditions: 15 minutes reaction time point
T1 construct: KRAS4b (amino acids 1-169) G12C/C118S protein; made in house
Experimental: (§1) Reaction: 1 μM of GppNHp-, GTP-, or GDP-loaded KRAS4b (amino acids 1-169) G12C/C118S protein (produced in-house by Protein Expression Laboratory, FNLCR/Leidos Biomed) in 20 mM 4-(2-hydroxyethyl)-1-piperazineethanesulfonic acid (HEPES) buffer containing 150 mM NaCl, 1 mM MgCl2, pH 7.3 was prepared freshly before assay. Ten-μL aliquots of protein were dispensed onto low volume 384-well plate, then 375 nL DMSO, and 25 nL of tested compounds from 5 mM DMSO stocks were added to appropriate wells using ECHO 555 acoustic liquid handler (Labcyte Inc.). For each reaction/assay, three blanks were prepared by mixing 10 μL of protein solution with 400 nL DMSO. The contents of the wells were carefully mixed by aspiration, and then each plate was sealed with an adhesive cover, centrifuged at 2000 g for 1 minute, and kept in the dark at room temperature until 5 min, 15 min, 30 min, or 2 h collections.
(§2) Target pretreatment: Before each assay MALDI target (Bruker MPT 384 ground steel BC) was pre-treated by pipetting on each spot 0.75 μL of saturated sinapinic acid in acetonitrile (ACN).
(§3) Sample preparation: At collection time point, 2 μL of reaction mixtures were pipetted out into 20 μL MALDI matrix solution (saturated solution of sinapinic acid in 1:1 ACN:water solution containing 0.75% trifluoroacetic acid (TFA)) deposited on 384 well polypropylene plate. Resulting solution was mixed by aspiration, centrifuged at 2000 g for 1 minute, then 1 μL aliquots were dispensed on pre-treated MALDI target using Beckman Coulter Biomek FXP 96/384-Span-8 Laboratory Automation Workstation. Finally, the MALDI target was dried under mild vacuum to produce spots with fine crystalline structure.
(§4) Measurements: MALDI-TOF measurements were performed on a Bruker Daltonics rapiflex Tissuetyper TOF-TOF mass spectrometer using linear mode and mass range from 18.6 to 21.6 kDa. Detector gain was set to 3.3× (483 V), sample rate to 5 GS/s, real time smoothing to medium (175 MHz), laser smart beam pattern was set to: “MS Thin Layer M5”, and the laser frequency was 10000 Hz. Spectra were automatically collected using custom Auto Xecute method. Laser power was auto adjusted using fuzzy control. The peak selection range was set to be between 19000 and 21500 Da. Peak evaluation uses half width parameter set to be smaller than 40 Da for processed spectrograms (centroid peak detection; smoothed by SavitzkyGolay algorithm using 7 m/z width and 2 cycles; baseline was subtracted using median algorithm with flatness 1 and median level 0.01). Fuzzy control used Proteins/Oligonucleotides protocol with minimum half width 1/10 times above threshold. Up to 40000 satisfactory shots were collected in 10000 shot steps. Dynamic termination was implemented to finish data collection when peak signal/noise ratio was reaching value of 50.
(§5) Spectra processing: Spectra were smoothed by SavitzkyGolay algorithm using 7 m/z width and three cycles. Centroid peak detection algorithm was used with signal to noise threshold set to 6, relative intensity threshold 4%, peak width 10 m/z and median baseline subtraction using flatness of 1 and median level of 0.01. Peak intensity and area under the peak were evaluated and recorded for all peaks between 19,300 Da and 21,550 Da.
(§6) Calculation of percent modification: Percent modification was calculated as a ratio of peak height for protein modified by compound to sum of peak height of remaining protein plus peak height for protein modified by compound. If multiple modifications were observed each was calculated as a ratio of peak height for given modification versus sum of peak heights for all observed protein species. Data reported in Table 5 are from 15 minutes reaction time point.

pERK in NCI-H358 cells = experiment: Cell-based pERK HTRF assay; conditions: 30 min incubation, read-out: pERK in NCI-H358 cell inhibition IC50
Experimental: pERK assays (Perkin Elmer) were used to determine the effectiveness of compounds of the present disclosure in disrupting KRAS G12C protein/effector signaling in cells.
On Day 1, cells (NCI-H358) were seeded into 96-well plates at 4×10^4 cells/well in complete growth media (RPMI, 10% FBS).
On Day 2, cells were treated with compounds at 0.25% DMSO. The source plate was created with compounds diluted in media at 5-fold the final assay concentration. The compounds were run in a 9-point concentration curve starting at 75 μM, with a 3-fold dilution between concentrations. 20 μL was transferred onto the cell plates (final volume in wells was 100 μL). Plates were harvested after 30 min incubation by aspirating media and adding kit-supplied 1× supplemented lysis buffer to all wells (75 μl per well). Plates were then placed on a plate shaker and incubated at 850 rpm for an additional 30 min.
Antibody mixture solution was prepared by diluting aliquoted d2 and Eu Cryptate antibodies 1:20 in kit supplied detection buffer, then mixed the diluted antibodies solutions (1:1 v:v). 4 μL of this solution was then added to a 384-well detection plate (Perkin Elmer; 6008230).
Samples were homogenized by pipetting up and down and then transferred (16 μL of cell lysates) from the 96-well cell culture plate to two wells of the HTRF 384-well detection plate containing the antibody solution. Plates were centrifuged (524 g for Imin) and allowed to incubate between 4 and 24 h at room temperature. Maximum signal is reached after 4 h incubation time and remains stable over a period of 24 hours. Therefore, readings can be made between 4 and 24 h of incubation. Plates were centrifuged again (524 g for Imin) and analyzed on the En Vision plate reader using the following settings: Excitation 320 nm, Bandwidth 75 nm; Emission 615 nm, Bandwidth 85 nm; Gain 100%; Flashes 100; Lag 60 μs.

[2] = target: T2, Avi-KRAS G12C (1-169) GppNHp/RAF1 RBD-3×FLAG (52-151) (Homo sapiens, UniProt P01116, G12C); experiment: Raf1 RBD-KRAS G12C-GppNHp disruption (protein:protein interaction HTRF assay); assay type: biochemical
T2 construct: Avi-KRAS G12C (1-169) GppNHp/RAF1 RBD-3×FLAG (52-151)
Experimental: A protein: protein (PPI) interaction Homogeneous Time Resolved Fluorescence (HTRF) assay was used to determine the effectiveness of compounds of the present disclosure in disrupting KRAS G12C protein and effector (RAF1 or PIK3CA) binding.
The HTRF assay used the following reagents and proteins: 50 nM Avi-KRAS G12C Q25A (1-169) GppNHp/3×FLAG-PI3K CA (157-299); 50 nM Avi-KRAS G12C (1-169) GppNHp/RAF1 RBD-3×FLAG (52-151); 35 nM Avi-PI3K RBD-3×FLAG; Assay Buffer: 50 mM Tris pH 7.5, 100 mM NaCl, 5 mM MgCl2, 0.1% BSA, 0.01% Tween 20, 10% DMSO; Bead Buffer: 50 mM Tris pH 7.5, 0.01% Tween 20; Assay volume: 20 μL (384 well plate-low volume format); and Compound titration: 30-0.02 μM, 3× dilution series.
The HTRF assay employed the following protocol:
Compounds were dispensed in assay plate (384-well, Grenier Bione #784075) using Echo (model 555) with dose response settings: 200 nL final volume, titration from 100 μM as a 10-point dilution series. KRAS proteins were prepared in assay buffer, and dispensed on plates, 5 μL per well, then incubated for 1 h at room temperature, with 700 rpm shaking. RAF1 RBD and PI3K RBD CA were prepared in assay buffer, dispensed onto plates, 5 μL per well, and then incubated for 1 h at room temperature, with 700 rpm shaking. Reagent mix was then prepared and dispensed on plates, 10 μL per well, and then incubated for 1 h at room temperature, with 700 rpm shaking.
Plates were analyzed on an Envision plate reader using the following setting: Excitation 320 nm, Bandwidth 75 nm; Emission 615 nm, Bandwidth 85 nm; Gain 100%; Flashes 100; Lag 60 μs. Data was reported as percentage of activity, with DMSO as 100%. Data was plotted and analyzed using Prism 8.

[3] = target: T3, GppNHp-loaded KRAS4b (amino acids 1-169) G12C/C118S protein (Homo sapiens, UniProt P01116, C118S/G12C); experiment: Covalent cysteine 12 modification by MALDI-TOF MS, GppNHp-loaded KRAS G12C; assay type: binding; conditions: 15 minutes reaction time point
T3 construct: KRAS4b (amino acids 1-169) G12C/C118S protein; made in house
Experimental: as §1, §2, §3, §4, §5, §6

Structure (SMILES) | GDP-KRAS G12C percent of modification [1] | IC50 (pERK in NCI-H358 cells) [nM] | IC50 [2] [nM] | GppNHp-KRAS G12C percent of modification [3] | IC50 (pERK in NCI-H358 cells; Homo sapiens, NCI-H358, 0.5 h) [nM]
C=CC(=O)N1CC[C@@H](Oc2nc(OC[C@@H]3CC4(CC4)CN3C)nc3c(F)c(-c4ccc(F)c5sc(N)nc45)c(C(F)(F)F)cc23)C1 (atropisomer, axis not shown) [Compound 24] | A (percent of modification ≥70%) | ≤ 100 | ≤ 500 | B (50≤percent of modification <70%) | –
C=CC(=O)N1CC[C@@H](Oc2nc(OC[C@@H]3CC4(CC4)CN3C)nc3c(F)c(-c4ccc(F)c5sc(N)nc45)c(C(F)(F)F)cc23)C1 (atropisomer, axis not shown) [Compound 25] | D (percent of modification <10%) | > 1000 | 5000 to 20000 | D (percent of modification <10%) | –
C=CC(=O)N1C[C@@H](C)[C@@H](Oc2nc(OC[C@@]34CCCN3C[C@H](F)C4)nc3c(F)c(-c4ccc(F)c5sc(N)nc45)c(C(F)(F)F)cc23)C1 (atropisomer, axis not shown) [Compound 27] | A (percent of modification ≥70%) | – | ≤ 500 | C (10%≤modification <50%) | ≤ 100
C=CC(=O)N1C[C@H](Oc2nc(OC[C@@]34CCCN3C[C@H](F)C4)nc3c(F)c(-c4ccc(F)c5sc(N)nc45)c(C(F)(F)F)cc23)C[C@@H]1C (atropisomer, axis not shown) [Compound 32] | A (percent of modification ≥70%) | ≤ 100 | ≤ 500 | C (10%≤modification <50%) | –
C=CC(=O)N1C[C@H](Oc2nc(OC[C@@]34CCCN3C[C@H](F)C4)nc3c(F)c(-c4ccc(F)c5sc(N)nc45)c(C(F)(F)F)cc23)C[C@@H]1C (atropisomer, axis not shown) [Compound 33] | D (percent of modification <10%) | > 1000 | 5000 to 20000 | D (percent of modification <10%) | –
C=CC(=O)N1C[C@H](Oc2nc(OC[C@@]34CCCN3C[C@H](F)C4)nc3c(F)c(-c4ccc(F)c5sc(N)nc45)c(C(F)(F)F)cc23)C[C@H]1C (atropisomer, axis not shown) [Compound 37] | A (percent of modification ≥70%) | – | ≤ 500 | A (percent of modification ≥70%) | ≤ 100
C=CC(=O)N1C[C@H](Oc2nc(OC[C@@]34CCCN3C[C@H](F)C4)nc3c(F)c(-c4ccc(F)c5sc(N)nc45)c(C(F)(F)F)cc23)C[C@H]1C (atropisomer, axis not shown) [Compound 38] | D (percent of modification <10%) | 100 to 1000 | 500 to 5000 | D (percent of modification <10%) | –
C=CC(=O)N1CC[C@@H](Oc2nc(OC[C@@]34CCCN3C[C@H](F)C4)nc3c(F)c(-c4ccc(F)c5sc(N)nc45)c(C(F)(F)F)cc23)C1 (single isomer, unassigned) [Compound 11] | A (percent of modification ≥70%) | – | ≤ 500 | A (percent of modification ≥70%) | ≤ 100

Second part, the compound after the results:

GDP-KRAS G12C percent of modification [1] | IC50 (pERK in NCI-H358 cells) [nM] | IC50 [2] [nM] | GppNHp-KRAS G12C percent of modification [3] | IC50 (pERK in NCI-H358 cells; Homo sapiens, NCI-H358, 0.5 h) [nM] | Structure (SMILES)
C (10%≤modification <50%) | 100 to 1000 | 500 to 5000 | C (10%≤modification <50%) | – | C=CC(=O)N1C[C@@H](C)[C@@H](Oc2nc(OC[C@@]34CCCN3C[C@H](F)C4)nc3c(F)c(-c4ccc(F)c5sc(N)nc45)c(C(F)(F)F)cc23)C1 (atropisomer, axis not shown) [Compound 39]
A (percent of modification ≥70%) | 100 to 1000 | ≤ 500 | C (10%≤modification <50%) | – | C=CC(=O)N1CC[C@@H](Oc2nc(OC[C@@]34CCCN3C[C@H](F)C4)nc3c(F)c(-c4ccc(F)c5sc(N)nc45)c(C(F)(F)F)cc23)[C@@H]1C (atropisomer, axis not shown) [Compound 41]
D (percent of modification <10%) | > 1000 | > 20000 | D (percent of modification <10%) | – | C=CC(=O)N1CC[C@@H](Oc2nc(OC[C@@]34CCCN3C[C@H](F)C4)nc3c(F)c(-c4ccc(F)c5sc(N)nc45)c(C(F)(F)F)cc23)[C@@H]1C (atropisomer, axis not shown) [Compound 42]
